Read-outs that look alike come from different tables or passages of the source.
How the values were obtained:
[1] = parameters: species or system male white mice (CF1); conditions: mouse, in vivo; for ED50 (effective analgesic dose in 50% of the mice), p.o.: po; for ED50 (effective analgesic dose in 50% of the mice), s.c.: sc
kappa receptor [2] = conditions: rat, in vivo
kappa receptor [3] = conditions: rat, in vivo; cited from earlier work

## CN(C(=O)Cc1ccc(Cl)c(Cl)c1)[C@@H]1c2ccccc2OC[C@H]1N1CCCC1 (relative stereo) [Example 7, trans-3,4-Dichloro-N-methyl-N-[3,4-dihydro-3-(pyrrolidin-1-yl)-2H-benzopyran-4-yl]benzeneacetamide]
[1]
  ED50 (effective analgesic dose in 50% of the mice), p.o.: 36 mg/kg
  ED50 (effective analgesic dose in 50% of the mice), s.c.: 1.7 mg/kg

## CN(C(=O)Cc1ccc(Br)cc1)[C@@H]1c2ccccc2CC[C@H]1N1CCCC1 (relative stereo) [Example 10]
[1]
  ED50 (effective analgesic dose in 50% of the mice), p.o.: 54. mg/kg
  ED50 (effective analgesic dose in 50% of the mice), s.c.: 8.1 mg/kg

## CN(C(=O)Cc1ccccc1)[C@@H]1c2ccccc2CC[C@H]1N1CCCC1 (relative stereo) [Example 11]
[1]
  ED50 (effective analgesic dose in 50% of the mice), p.o.: > 81. mg/kg
  ED50 (effective analgesic dose in 50% of the mice), s.c.: 30. mg/kg

## CN(C(=O)Cc1ccc(C(F)(F)F)cc1)[C@@H]1c2ccccc2CC[C@H]1N1CCCC1 (relative stereo) [Example 12]
[1]
  ED50 (effective analgesic dose in 50% of the mice), p.o.: 54. mg/kg
  ED50 (effective analgesic dose in 50% of the mice), s.c.: 19. mg/kg

## CN(C(=O)Cc1ccc(Cl)c(Cl)c1)[C@@H]1c2cccc(OC(=O)c3ccccc3)c2CC[C@H]1N1CCCC1.Cl (relative stereo) [Example 16, trans-3,4-dichloro-N-methyl-N-[2-(pyrrolidin-1-yl)-5-benzoyloxy-1,2,3,4-tetrahydronaphth-1-yl]benzeneacetamide hydrochloride]
[1]
  ED50 (effective analgesic dose in 50% of the mice), p.o.: 10. mg/kg
  ED50 (effective analgesic dose in 50% of the mice), s.c.: 0.71 mg/kg

## CN(C(=O)Cc1ccccc1)[C@@H]1c2ccccc2OC[C@H]1N1CCCC1.Cl (relative stereo) [Example 19, trans-N-methyl-N-[3,4-dihydro-3-(pyrrolidin-1-yl)-2H-benzopyran-4-yl]benzeneacetamide hydrochloride]
[1]
  ED50 (effective analgesic dose in 50% of the mice), p.o.: 36. mg/kg
  ED50 (effective analgesic dose in 50% of the mice), s.c.: 1.7 mg/kg

## COc1cccc2c1OC[C@@H](N1CCCC1)[C@@H]2N(C)C(=O)Cc1ccc(Cl)c(Cl)c1.Cl (relative stereo) [Example 20, trans-3,4-dichloro-N-methyl-N-[3,4-dihydro-8-methoxy-3-(pyrrolidin-1-yl)-2H-benzopyran-4yl]benzeneacetamide hydrochloride]
[1]
  ED50 (effective analgesic dose in 50% of the mice), p.o.: 30. mg/kg
  ED50 (effective analgesic dose in 50% of the mice), s.c.: 1.2 mg/kg

## COCc1c(O)ccc2c1CC[C@@H](N1CCCC1)[C@@H]2N(C)C(=O)Cc1ccc(Cl)c(Cl)c1 (relative stereo) [Example 25]
[1]
  ED50 (effective analgesic dose in 50% of the mice), p.o.: 54. mg/kg
  ED50 (effective analgesic dose in 50% of the mice), s.c.: 0.19 mg/kg

## COCOc1cccc2c1CC[C@@H](N1CCCC1)[C@@H]2N(C)C(=O)Cc1ccc(Cl)c(Cl)c1 (relative stereo) [Example 48]
[1]
  ED50 (effective analgesic dose in 50% of the mice), p.o.: 13. mg/kg
  ED50 (effective analgesic dose in 50% of the mice), s.c.: 4.5 mg/kg

## COc1cccc2c1CC[C@@H](N1CC=CC1)[C@@H]2N(C)C(=O)Cc1ccc(Cl)c(Cl)c1.Cl (relative stereo) [Example 50, trans-3,4-dichloro-N-methyl-N-[2-(2,5-dihydro-1H-pyrrol-1-yl)-5-methoxy-1,2,3,4-tetrahydronaphth-1-yl]benzeneacetamide hydrochloride]
[1]
  ED50 (effective analgesic dose in 50% of the mice), p.o.: 3.4 mg/kg
  ED50 (effective analgesic dose in 50% of the mice), s.c.: 0.24 mg/kg

## CN(C)C(=S)Oc1cccc2c1CC[C@@H](N1CCCC1)[C@@H]2N(C)C(=O)Cc1ccc(Cl)c(Cl)c1.Cl (relative stereo) [Example 68, trans-3,4-dichloro-N-methyl-N-[2-(pyrrolidin-1-yl)-5-(N,N-dimethylthiocarbamoyloxy)-1,2,3,4-tetrahydronaphth-1-yl]benzeneacetamide hydrochloride]
[1]
  ED50 (effective analgesic dose in 50% of the mice), p.o.: 18. mg/kg
  ED50 (effective analgesic dose in 50% of the mice), s.c.: 1.7 mg/kg

## CN(C(=O)Cc1ccc(Cl)c(Cl)c1)[C@@H]1c2c(ccc3ccccc23)CC[C@H]1N1CCCC1 (relative stereo) [Example 69]
[1]
  ED50 (effective analgesic dose in 50% of the mice), p.o.: 16. mg/kg
  ED50 (effective analgesic dose in 50% of the mice), s.c.: 3.0 mg/kg

## CN1CC[C@]23c4c5ccc(O)c4O[C@H]2[C@@H](O)C=C[C@H]3[C@H]1C5 [Morphine]
Kappa receptor [2]
  % increase over control (urine output): 48%
  increase in urine flow / diuresis, in words: minimal or no diuresis
  mean cumulative urine output at 5 hours: 1.38 mL
Kappa receptor [2]; sc
  % increase over control (urine output): 159%
  mean cumulative urine output at 5 hours: 2.41 mL
  toxicity / deaths: Toxic (2/8 dead)
Kappa receptor [3]
  increase in urine flow, in words: largely devoid of this property
[1]
  ED50 (effective analgesic dose in 50% of the mice), p.o.: 3.8 mg/kg
  ED50 (effective analgesic dose in 50% of the mice), s.c.: 1.0 mg/kg

From patent publication US4876269A (priority 1987, dated 1989)
